Laboratory results taken from patent US20260125346A1, “Isoquinolinone Derivatives and 4H-Quinolizinone Derivatives and Pharmaceutical Compositions Thereof for the Treatment of Disease” (BeOne Medicines I GmbH, priority 2023, published 2026).

Columns and labels:
[1] = target: PI3Kα (p110/p85) kinase (wild type, "WT") (Homo sapiens, UniProt P42336); experiment: PI3Kα (p110/p85) kinase ADP-Glo Assay; format: biochemical; conditions: 25 uM ATP
Outline: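 IC50 values come from a four-parameter logistic fit of ADP-Glo chemiluminescence, reflecting ADP formed. Enzyme, lipid substrate and […] compound were preincubated 30 min at room temperature, then 25 µM ATP was added for a 120 min reaction in 50 mM HEPES pH7.5, 3 mM MgCl2.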

[2] = target: PI3Kα (p110[H1047R]/p85) kinase (Homo sapiens, UniProt P42336, H1047R); experiment: PI3Kα (p110[H1047R]/p85) kinase ADP-Glo Assay; format: biochemical; conditions: 25 uM ATP; for selectivity: WT/H1047R: ADP-Glo Assay IC50 ratio
Outline: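 ADP-Glo luminescence tracked ADP formed by the mutant p110α(H1047R)/p85 complex during a 120 min room-temperature reaction with 25 µM ATP and 5.35 µg/ml PI(4,5)P2:PS lipid substrate, started after 30 min enzyme–compound–substrate pre-incubation (compound […], 50 mM HEPES pH 7.5). IC50 via four-parameter logistic equation.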

[3] = test system: PI3Kα H1047R mutated cell line T-47D; experiment: Phospho-AKT (Ser473) Inhibition Assay (HTRF), T-47D; format: cell-based; conditions: for IC50: Homo sapiens, T47D, T-47D, 1 hour treatment, read-out: p-AKT Inhibition assay (S473) IC50 T-47D; for Selectivity: SK-BR-3/T-47D (p-AKT): p-AKT (S473) IC50 ratio
Outline: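 Cells seeded overnight in insulin-supplemented MEM, then treated 1 h with 11-point 1:3 compound dilutions (10 μM to 0.1 nM final, 0.1% DMSO). Lysates assayed for phospho-AKT Ser473 by HTRF; IC50 from 4-parameter logistic fit, normalised to DMSO (max) and 10 μM GDC0077 (min).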

Chain of PI3Kα (p110/p85) kinase (wild type, "WT") (P42336 whole entry): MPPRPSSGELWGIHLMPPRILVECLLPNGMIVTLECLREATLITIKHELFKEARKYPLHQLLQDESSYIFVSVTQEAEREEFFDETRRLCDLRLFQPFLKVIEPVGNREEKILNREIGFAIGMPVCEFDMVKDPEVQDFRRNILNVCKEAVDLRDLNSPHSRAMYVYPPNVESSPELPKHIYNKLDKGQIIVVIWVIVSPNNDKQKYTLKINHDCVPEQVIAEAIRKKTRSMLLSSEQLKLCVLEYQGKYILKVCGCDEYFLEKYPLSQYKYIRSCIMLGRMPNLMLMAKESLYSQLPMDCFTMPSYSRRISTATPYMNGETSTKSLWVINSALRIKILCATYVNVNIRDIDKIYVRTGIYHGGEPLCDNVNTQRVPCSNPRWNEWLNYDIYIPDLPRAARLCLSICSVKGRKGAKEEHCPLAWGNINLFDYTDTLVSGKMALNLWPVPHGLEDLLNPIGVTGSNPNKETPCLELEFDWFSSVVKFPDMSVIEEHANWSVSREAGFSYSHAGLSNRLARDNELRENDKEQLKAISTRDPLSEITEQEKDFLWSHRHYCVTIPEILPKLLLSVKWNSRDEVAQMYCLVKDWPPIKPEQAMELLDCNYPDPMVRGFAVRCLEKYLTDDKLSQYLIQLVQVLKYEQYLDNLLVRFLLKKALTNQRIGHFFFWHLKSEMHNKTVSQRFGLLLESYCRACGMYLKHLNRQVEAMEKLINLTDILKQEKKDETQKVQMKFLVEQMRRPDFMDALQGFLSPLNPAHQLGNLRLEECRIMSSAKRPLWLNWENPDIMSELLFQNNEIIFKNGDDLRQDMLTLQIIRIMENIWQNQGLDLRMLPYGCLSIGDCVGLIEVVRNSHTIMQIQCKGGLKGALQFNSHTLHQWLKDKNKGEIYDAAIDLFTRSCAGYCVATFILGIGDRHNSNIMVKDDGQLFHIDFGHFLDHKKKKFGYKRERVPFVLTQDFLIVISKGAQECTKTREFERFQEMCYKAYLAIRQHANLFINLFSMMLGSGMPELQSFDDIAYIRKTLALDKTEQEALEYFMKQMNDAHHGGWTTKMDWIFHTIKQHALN
Chain of PI3Kα (p110/p85) kinase (wild type, "WT") (P27986 whole entry partner): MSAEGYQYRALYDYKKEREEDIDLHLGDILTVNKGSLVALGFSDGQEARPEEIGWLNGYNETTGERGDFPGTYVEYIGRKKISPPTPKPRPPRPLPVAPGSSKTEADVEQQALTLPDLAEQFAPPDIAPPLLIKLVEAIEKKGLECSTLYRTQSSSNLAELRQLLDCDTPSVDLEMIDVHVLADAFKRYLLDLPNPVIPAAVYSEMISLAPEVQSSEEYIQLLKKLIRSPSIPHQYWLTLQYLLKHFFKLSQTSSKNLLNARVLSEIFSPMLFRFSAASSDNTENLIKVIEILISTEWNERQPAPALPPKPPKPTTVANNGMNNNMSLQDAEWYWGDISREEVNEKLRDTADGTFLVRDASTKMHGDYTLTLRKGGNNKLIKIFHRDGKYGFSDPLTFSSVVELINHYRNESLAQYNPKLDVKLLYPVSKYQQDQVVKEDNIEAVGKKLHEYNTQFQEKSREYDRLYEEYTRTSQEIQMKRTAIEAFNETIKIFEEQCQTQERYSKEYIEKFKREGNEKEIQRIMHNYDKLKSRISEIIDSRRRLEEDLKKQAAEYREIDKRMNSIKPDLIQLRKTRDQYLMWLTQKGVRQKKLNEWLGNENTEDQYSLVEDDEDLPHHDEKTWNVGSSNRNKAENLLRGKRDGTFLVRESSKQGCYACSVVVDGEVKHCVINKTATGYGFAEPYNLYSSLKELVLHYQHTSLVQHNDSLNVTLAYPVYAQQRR
Chain of PI3Kα (p110[H1047R]/p85) kinase (P42336 whole entry H1047R): as the sequence (P42336 whole entry) above, with H1047R counted along it
Chain of PI3Kα (p110[H1047R]/p85) kinase (P27986 whole entry partner): as the sequence (P27986 whole entry partner) above

For `Cc1cc(C(C)Nc2ccccc2S(C)(=O)=O)c2cc(-c3ccccc3)n(C)c(=O)c2c1` (stereo not shown) [Example 82, 2,7-dimethyl-5-(1-((2-(methylsulfonyl)phenyl)amino)ethyl)-3-phenylisoquinolin-1(2H)-one], the IC50 [1] was 3310 nM, the IC50 [2] was 549 nM and the “selectivity: WT/H1047R” value [2] was 6.0. The IC50 [3] was 155 nM and the “Selectivity: SK-BR-3/T-47D (p-AKT)” value [3] was 13.0.

`Cc1cc(C(C)Nc2ccccc2C(=O)O)c2cc(-c3cccnc3)n(C)c(=O)c2c1` (stereo not shown) [Example 37, 2-((1-(2,7-dimethyl-1-oxo-3-(pyridin-3-yl)-1,2-dihydroisoquinolin-5-yl)ethyl)amino)benzoic acid] was tested, and the IC50 [1] was 12500 nM, the IC50 [2] was 309 nM and the “selectivity: WT/H1047R” value [2] was 40.6. For the same compound, the IC50 [3] was 382 nM and the “Selectivity: SK-BR-3/T-47D (p-AKT)” value [3] was greater than 26.

`COC1(c2ccc(-c3cc4c(C(C)Nc5ccccc5C(=O)O)cc(C)cc4c(=O)n3C)cc2)CCOCC1` (stereo not shown) [Example 74, 2-((1-(3-(4-(4-methoxytetrahydro-2H-pyran-4-yl)phenyl)-2,7-dimethyl-1-oxo-1,2-dihydroisoquinolin-5-yl)ethyl)amino)benzoic acid] was tested, and the IC50 [1] was 13100 nM, the IC50 [2] was 729 nM and the “selectivity: WT/H1047R” value [2] was 18.0. The IC50 [3] was 307 nM and the “Selectivity: SK-BR-3/T-47D (p-AKT)” value [3] was 14.3.

In the case of `Cc1cc(C(C)Nc2ccccc2C(=O)O)c2cc(-c3ccc4nn(C)cc4c3)n(C)c(=O)c2c1` (stereo not shown) [Example 19, 2-((1-(2,7-dimethyl-3-(2-methyl-2H-indazol-5-yl)-1-oxo-1,2-dihydroisoquinolin-5-yl)ethyl)amino)benzoic acid], the IC50 [1] is reported as 6560 nM, the IC50 [2] is reported as 311 nM and the “selectivity: WT/H1047R” value [2] is reported as 21.1. The IC50 [3] was 166 nM and the “Selectivity: SK-BR-3/T-47D (p-AKT)” value [3] was 13.8.

For `Cc1cc(C(C)Nc2ccccc2C(=O)O)c2cc(-c3ccc(C4(O)CC4)cc3)n(C)c(=O)c2c1` (stereo not shown) [Example 62, 2-((1-(3-(4-(1-hydroxycyclopropyl)phenyl)-2,7-dimethyl-1-oxo-1,2-dihydroisoquinolin-5-yl)ethyl)amino)benzoic acid], the IC50 [1] was 4730 nM, the IC50 [2] was 230 nM and the “selectivity: WT/H1047R” value [2] was 20.6. For the same compound, the IC50 [3] was 130 nM and the “Selectivity: SK-BR-3/T-47D (p-AKT)” value [3] was 22.9.

`CCn1c(-c2ccc(F)cc2)cc2c(C(C)Nc3ccc(Cl)nc3C(=O)O)cc(C)cc2c1=O` (stereo not shown) [Example 81, 6-chloro-3-((1-(2-ethyl-3-(4-fluorophenyl)-7-methyl-1-oxo-1,2-dihydroisoquinolin-5-yl)ethyl)amino)picolinic acid] was tested, and the IC50 [1] was 3780 nM, the IC50 [2] was 215 nM and the “selectivity: WT/H1047R” value [2] was 17.6. For the same compound, the IC50 [3] was 40.9 nM and the “Selectivity: SK-BR-3/T-47D (p-AKT)” value [3] was 45.6.

In the case of `Cc1cc(C(C)Nc2ccccc2C(=O)O)c2cc(-c3ccc4c(c3)CN(C)C4=O)n(C)c(=O)c2c1` (stereo not shown) [Example 70, 2-((1-(2,7-dimethyl-3-(2-methyl-1-oxoisoindolin-5-yl)-1-oxo-1,2-dihydroisoquinolin-5-yl)ethyl)amino)benzoic acid], the IC50 [1] is reported as 21100 nM, the IC50 [2] is reported as 872 nM and the “selectivity: WT/H1047R” value [2] is reported as 24.2. For the same compound, the IC50 [3] was 1100 nM and the “Selectivity: SK-BR-3/T-47D (p-AKT)” value [3] was greater than 9.11.

In the case of `Cc1cc(C(C)Nc2ccccc2C(=O)O)c2cc(-c3cncc(F)c3)n(C)c(=O)c2c1` (stereo not shown) [Example 38, 2-((1-(3-(5-fluoropyridin-3-yl)-2,7-dimethyl-1-oxo-1,2-dihydroisoquinolin-5-yl)ethyl)amino)benzoic acid], the IC50 [1] is reported as 9810 nM, the IC50 [2] is reported as 267 nM and the “selectivity: WT/H1047R” value [2] is reported as 36.7. The IC50 [3] was 285 nM and the “Selectivity: SK-BR-3/T-47D (p-AKT)” value [3] was greater than 35.

For `Cc1cc(C(C)Nc2ccccc2C(=O)O)c2cc(-c3ccccc3C)n(C)c(=O)c2c1` (stereo not shown) [Example 2, 2-((1-(2,7-dimethyl-1-oxo-3-(o-tolyl)-1,2-dihydroisoquinolin-5-yl)ethyl)amino)benzoic acid], the IC50 [1] was 22400 nM, the IC50 [2] was 161 nM and the “selectivity: WT/H1047R” value [2] was 139.3. For the same compound, the IC50 [3] was 66.3 nM and the “Selectivity: SK-BR-3/T-47D (p-AKT)” value [3] was 43.0.

In the case of `Cc1cc(C(C)Nc2ccccc2C(=O)O)c2cc(-c3ccc(F)cc3)n(CC#N)c(=O)c2c1` (stereo not shown) [Example 63, 2-((1-(2-(cyanomethyl)-3-(4-fluorophenyl)-7-methyl-1-oxo-1,2-dihydroisoquinolin-5-yl)ethyl)amino)benzoic acid], the IC50 [1] is reported as 6140 nM, the IC50 [2] is reported as 92 nM and the “selectivity: WT/H1047R” value [2] is reported as 66.8. The IC50 [3] was 57.3 nM and the “Selectivity: SK-BR-3/T-47D (p-AKT)” value [3] was 83.3.

For `Cc1cc(C(C)Nc2c(C(=O)O)sc3ccccc23)c2cc(-c3ccccc3)n(C)c(=O)c2c1` (stereo not shown) [Example 48, 3-((1-(2,7-dimethyl-1-oxo-3-phenyl-1,2-dihydroisoquinolin-5-yl)ethyl)amino)benzo[b]thiophene-2-carboxylic acid], the IC50 [1] was 5160 nM, the IC50 [2] was 829 nM and the “selectivity: WT/H1047R” value [2] was 6.2. The IC50 [3] was 632 nM and the “Selectivity: SK-BR-3/T-47D (p-AKT)” value [3] was 6.0.

For `Cc1cc(C(C)Nc2ccccc2C(=O)O)c2cc(-c3cnn(CC45CC6C[C@H](C4)C[C@H](C6)C5)c3C)n(C)c(=O)c2c1` (stereo partly drawn) [Example 87, 2-((1-(3-(1-(((3S,5S)-adamantan-1-yl)methyl)-5-methyl-1H-pyrazol-4-yl)-2,7-dimethyl-1-oxo-1,2-dihydroisoquinolin-5-yl)ethyl)amino)benzoic acid], the IC50 [1] was 35400 nM, the IC50 [2] was 1500 nM and the “selectivity: WT/H1047R” value [2] was 23.5. For the same compound, the IC50 [3] was 432 nM and the “Selectivity: SK-BR-3/T-47D (p-AKT)” value [3] was 6.6.

`Cc1cc(C(C)Nc2ccccc2C(=O)O)c2cc(-c3cc(F)cc(F)c3)n(C)c(=O)c2c1` (stereo not shown) [Example 10, 2-((1-(3-(3,5-difluorophenyl)-2,7-dimethyl-1-oxo-1,2-dihydroisoquinolin-5-yl)ethyl)amino)benzoic acid] was tested, and the IC50 [1] was 8080 nM, the IC50 [2] was 224 nM and the “selectivity: WT/H1047R” value [2] was 36.1. For the same compound, the IC50 [3] was 82 nM and the “Selectivity: SK-BR-3/T-47D (p-AKT)” value [3] was 33.3.

With `Cc1cc(C(C)Nc2ccccc2C(=O)O)c2cc(-c3ccc(C(F)(F)F)cc3)n(C)c(=O)c2c1` (stereo not shown) [Example 49, 2-((1-(2,7-dimethyl-1-oxo-3-(4-(trifluoromethyl)phenyl)-1,2-dihydroisoquinolin-5-yl)ethyl)amino)benzoic acid] the IC50 [1] was 9530 nM, the IC50 [2] was 457 nM and the “selectivity: WT/H1047R” value [2] was 20.8. The IC50 [3] was 89.2 nM and the “Selectivity: SK-BR-3/T-47D (p-AKT)” value [3] was 50.7.

For `Cc1cc(C(C)Nc2ccccc2C(=O)O)c2cc(-c3cncnc3)n(C)c(=O)c2c1` (stereo not shown) [Example 61, 2-((1-(2,7-dimethyl-1-oxo-3-(pyrimidin-5-yl)-1,2-dihydroisoquinolin-5-yl)ethyl)amino)benzoic acid], the IC50 [1] was 19500 nM, the IC50 [2] was 790 nM and the “selectivity: WT/H1047R” value [2] was 24.6. The IC50 [3] was 1400 nM and the “Selectivity: SK-BR-3/T-47D (p-AKT)” value [3] was greater than 7.15.

`Cc1cc(C(C)Nc2ccccc2C(=O)O)c2cc(-c3ccc(F)cc3)n(C3CCOCC3)c(=O)c2c1` (stereo not shown) [Example 96, 2-((1-(3-(4-fluorophenyl)-7-methyl-1-oxo-2-(tetrahydro-2H-pyran-4-yl)-1,2-dihydroisoquinolin-5-yl)ethyl)amino)benzoic acid] was tested, and the IC50 [1] was 72000 nM, the IC50 [2] was 910 nM and the “selectivity: WT/H1047R” value [2] was 79.1. For the same compound, the IC50 [3] was 330 nM and the “Selectivity: SK-BR-3/T-47D (p-AKT)” value [3] was 28.8.

In the case of `Cc1cc(C(C)Nc2ccccc2C(=O)O)c2cc(-c3ccc(F)cc3F)n(C)c(=O)c2c1` (stereo not shown) [Example 11, 2-((1-(3-(2,4-difluorophenyl)-2,7-dimethyl-1-oxo-1,2-dihydroisoquinolin-5-yl)ethyl)amino)benzoic acid], the IC50 [1] is reported as 21100 nM, the IC50 [2] is reported as 210 nM and the “selectivity: WT/H1047R” value [2] is reported as 100.2. For the same compound, the IC50 [3] was 80.2 nM and the “Selectivity: SK-BR-3/T-47D (p-AKT)” value [3] was greater than 125.

With `Cc1cc(C(C)Nc2cc3ccsc3cc2C(=O)O)c2cc(-c3ccccc3)n(C)c(=O)c2c1` (stereo not shown) [Example 47, 5-((1-(2,7-dimethyl-1-oxo-3-phenyl-1,2-dihydroisoquinolin-5-yl)ethyl)amino)benzo[b]thiophene-6-carboxylic acid] the IC50 [1] was 14300 nM, the IC50 [2] was 525 nM and the “selectivity: WT/H1047R” value [2] was 27.3. The IC50 [3] was 57.2 nM and the “Selectivity: SK-BR-3/T-47D (p-AKT)” value [3] was greater than 175.

In the case of `Cc1cc(C(C)Nc2cccnc2C(=O)O)c2cc(-c3ccc(F)cc3)n(C)c(=O)c2c1` (stereo not shown) [Example 33, 3-((1-(3-(4-fluorophenyl)-2,7-dimethyl-1-oxo-1,2-dihydroisoquinolin-5-yl)ethyl)amino)picolinic acid], the IC50 [1] is reported as 55100 nM, the IC50 [2] is reported as 1050 nM and the “selectivity: WT/H1047R” value [2] is reported as 52.6. The IC50 [3] was 271 nM and the “Selectivity: SK-BR-3/T-47D (p-AKT)” value [3] was 36.6.

In the case of `Cc1cc(C(C)Nc2ccccc2C(=O)O)c2cc(-c3ccccc3)n(C)c(=O)c2c1` (stereo not shown) [Example 1, 2-((1-(2,7-dimethyl-1-oxo-3-phenyl-1,2-dihydroisoquinolin-5-yl)ethyl)amino)benzoic acid], the IC50 [1] is reported as 2770 nM, the IC50 [2] is reported as 170 nM and the “selectivity: WT/H1047R” value [2] is reported as 16.3. The IC50 [3] was 43.5 nM and the “Selectivity: SK-BR-3/T-47D (p-AKT)” value [3] was 48.6.

In the case of `Cc1cc(C(C)Nc2ccncc2C(=O)O)c2cc(-c3ccc(F)cc3)n(C)c(=O)c2c1` (stereo not shown) [Example 97, 4-((1-(3-(4-fluorophenyl)-2,7-dimethyl-1-oxo-1,2-dihydroisoquinolin-5-yl)ethyl)amino)nicotinic acid], the IC50 [1] is reported as greater than 100000 nM, the IC50 [2] is reported as greater than 100000 nM and the IC50 [3] is reported as greater than 10000 nM.
